From patent publication US20230250096A1, “SUBSTITUTED PHENYL-1H-PYRROLO[2,3-c] PYRIDINE DERIVATIVES” (Janssen Pharmaceutica NV, priority 2021, published 2023)

How the values were obtained:
[1] = biological target: T1, menin/MLL (terbium chelate-labeled menin, FITC-MBM1 peptide) (Homo sapiens, UniProt O00255, T541A); assay: Menin/MLL homogenous time-resolved fluorescence (HTRF) assay; type: binding; details: 30 min incubation
T1 construct: Menin (a.a 1-610-6xhis tag, 2.3 mg/mL in 20 mM Hepes)
T1 sequence (O00255 with tags, fused parts or gaps T541A): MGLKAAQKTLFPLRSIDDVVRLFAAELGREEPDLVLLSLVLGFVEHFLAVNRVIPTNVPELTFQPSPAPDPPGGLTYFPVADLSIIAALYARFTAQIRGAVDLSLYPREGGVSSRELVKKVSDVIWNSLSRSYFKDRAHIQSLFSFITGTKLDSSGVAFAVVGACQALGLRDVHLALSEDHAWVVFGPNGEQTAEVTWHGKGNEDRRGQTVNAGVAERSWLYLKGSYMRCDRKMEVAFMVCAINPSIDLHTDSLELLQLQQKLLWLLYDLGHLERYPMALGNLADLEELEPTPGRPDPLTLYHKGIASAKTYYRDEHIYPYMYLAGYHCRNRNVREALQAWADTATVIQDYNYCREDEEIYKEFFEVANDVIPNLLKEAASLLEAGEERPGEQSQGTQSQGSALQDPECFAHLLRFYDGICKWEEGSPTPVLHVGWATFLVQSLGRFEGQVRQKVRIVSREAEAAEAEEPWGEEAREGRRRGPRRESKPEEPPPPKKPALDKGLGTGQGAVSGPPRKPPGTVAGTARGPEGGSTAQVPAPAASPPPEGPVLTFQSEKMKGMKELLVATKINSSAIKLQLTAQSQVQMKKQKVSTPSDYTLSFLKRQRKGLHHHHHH
Procedure, shortened: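 Competition binding read by time-resolved FRET (FITC 520 nm over terbium 490 nm) after compound meets labeled menin 1-610-His […] for 30 min, then FITC-MBM1 (75 nM) for 15 min, ambient temperature, 0.5% DMSO. Eleven-point four-fold dilutions, usually starting at 10 μM, fitted to four-parameter curves for IC50.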

OCI-AML3 cells = assay: Proliferation assay (spheroid confluence, 8 days), OCI-AML3; type: cell-based, human; details: Homo sapiens, OCI-AML-3, OCI-AML3; read-out: spheroid assay_OCI-AML3 IC50
Procedure: (§1) The anti-proliferative effect of menin/MLL protein/protein interaction inhibitor test compounds was assessed in human leukemia cell lines. The cell line MOLM14 harbors a MLL translocation and expresses the MLL fusion protein MLL-AF9, respectively, as well as the wildtype protein from the second allele. OCI-AML3 cells that carry the NPM1c gene mutation were also tested. […] KO-52 was used as a control cell line containing two MLL (KMT2A) wildtype alleles in order to exclude compounds that display general cytotoxic effects.
(§2) MOLM14 cells were cultured in RPMI-1640 (Sigma Aldrich) supplemented with 10% heat-inactivated fetal bovine serum (HyClone), 2 mM L-glutamine (Sigma Aldrich) and 50 μg/ml gentamycin (Gibco). KO-52 and OCI-AML3 cell lines were propagated in alpha-MEM (Sigma Aldrich) supplemented with 20% heat-inactivated fetal bovine serum (HyClone), 2 mM L-glutamine (Sigma Aldrich) and 50 μg/ml gentamycin (Gibco).
(§3) In order to assess the anti-proliferative effects, 200 MOLM14 cells, 200 OCI-AML3 cells or 300 KO-52 cells were seeded in 200 μl media per well in 96-well round bottom, ultra-low attachment plates (Costar, catalogue number 7007). Cell seeding numbers were chosen based on growth curves to ensure linear growth throughout the experiment. Test compounds were added at different concentrations and the DMSO content was normalized to 0.3%. Cells were incubated for 8 days at 37° C. and 5% CO2. Spheroid like growth was measured in real-time by live-cell imaging (IncuCyteZOOM, Essenbio, 4×objective) acquiring images at day 8. Confluence (%) as a measure of spheroid size was determined using an integrated analysis tool.
(§4) In order to determine the effect of the test compounds over time, the confluence in each well as a measure of spheroid size, was calculated. Confluence of the highest dose of a reference compound was used as baseline for the LC (Low control) and the confluence of DMSO treated cells was used as 0% cytotoxicity (High Control, HC).
(§5) Absolute IC50 values were calculated as percent change in confluence as follows:
(§6) LC=Low Control: cells treated with e.g. 1 μM of the cytotoxic agent staurosporin, or e.g. cells treated with a high concentration of an alternative reference compound
(§7) HC=High Control: Mean confluence (%) (DMSO treated cells)
(§8) % Effect=100−(100*(Sample−LC)/(HC−LC))
(§9) GraphPad Prism (version 7.00) was used to calculate the IC50. Dose-response equation was used for the plot of % Effect vs Log10 compound concentration with a variable slope and fixing the maximum to 100% and the minimum to 0%.

KO-52 cells = assay: Proliferation assay (spheroid confluence, 8 days), KO-52 control cell line; type: cell-based, human; details: Homo sapiens, read-out: spheroid assay_KO-52 IC50
Procedure: as §1, §2, §3, §4, §5, §6, §7, §8, §9

[2] = Dynamic vapor sorption (DVS) moisture sorption analysis; type: physicochemical
Procedure: Dynamic Vapor Sorption (DVS)
The moisture sorption analysis (DVS) was performed using a ProUmid GmbH & Co. KG Vsorp Enhanced dynamic vapor sorption apparatus. The moisture profile was evaluated by monitoring vapor adsorption/desorption over the range of 0 to 90% relative humidity at 25° C. The sample weight equilibrium criteria were set at <0.01% change in 45 min with minimum and maximum time of acclimation at 50 min and 120 min, respectively. The moisture profile consisted of 2 cycles of vapor adsorption/desorption.
In the humidity range of 20-90% RH, the crystalline form adsorbs and desorbs moisture slowly and reversibly up to 2.5% by mass on average. Based on DVS, the crystalline HCl salt Form, at equilibrium, can contain around 3 equivalents of water (8.5-9.5% total moisture mass) at common ambient RH of 40% to 75%.

[3] = common ambient RH of 40% to 75%

IC50 [1] [nM] | IC50 (OCI-AML3 cells) [nM] | SMILES | IC50 (KO-52 cells) [nM] | hygroscopicity of the crystalline form (DVS change in mass plot) ([2]; 0 to 90% relative humidity, 25° C., 2 cycles of adsorption/desorption) | solid-state form change after the DVS test (XRPD compared with the starting material) ([2]; XRPD of the fraction obtained after DVS) | dehydration behaviour at low relative humidity ([2]; below 10% RH, to complete dehydrated state at 0% RH) | total moisture mass at equilibrium [2, 3] | water content at equilibrium [2, 3] | moisture adsorbed and desorbed (slowly and reversibly), on average ([2]; humidity range of 20-90% RH, 25° C.)
0.041 | 8 | CNC(=O)N1CCC(CN2CC[C@H](Cc3cn(-c4ccc(F)cc4C(=O)N(C)C(C)C)c4cncc(C)c34)C2)CC1 (single isomer, unassigned) [Compound 101] | 3100 | – | – | – | – | – | –
0.088 | 7 | COCC(=O)N1CCC(C(C)N2CCC(Cc3cn(-c4ccc(F)cc4C(=O)N(C)C(C)C)c4cncc(C)c34)C2)CC1 (single isomer, unassigned) [Compound 117a] | 1600 | – | – | – | – | – | –

SMILES | IC50 [1] [nM] | IC50 (OCI-AML3 cells) [nM] | IC50 (KO-52 cells) [nM] | hygroscopicity of the crystalline form (DVS change in mass plot) ([2]; 0 to 90% relative humidity, 25° C., 2 cycles of adsorption/desorption) | solid-state form change after the DVS test (XRPD compared with the starting material) ([2]; XRPD of the fraction obtained after DVS) | dehydration behaviour at low relative humidity ([2]; below 10% RH, to complete dehydrated state at 0% RH) | total moisture mass at equilibrium [2, 3] | water content at equilibrium [2, 3] | moisture adsorbed and desorbed (slowly and reversibly), on average ([2]; humidity range of 20-90% RH, 25° C.)
CC(=O)N1CCC(CN2CC[C@@H](Cc3cn(-c4ccc(F)cc4C(=O)N(C)C(C)C)c4cncc(C)c34)C2)CC1.Cl [Compound 51a] | 0.024 | – | – | hygroscopic | No indication of a solid-state form change was observed | dehydrates rapidly | 8.5-9.5% | around 3 equivalents of water | up to 2.5 % by mass
